In US20150239889A1, “PYRAZOLOPYRIMIDINE COMPOUND” (MITSUBISHI TANABE PHARMA CORPORATION, priority 2012, published 2015):

Columns and labels:
Hep3B cells = test: EPO production assay (ELISA of culture supernatant); assay type: cell-based; conditions: Homo sapiens, 3 μmol/L test compound, 48 hours, relative to control (0.1% DMSO), read-out: EPO production stimulation rate with 3 μmol/L test compound
Description: The stimulatory effect of the compound onEPO production was determined as follows using Hep3B cells.
Cells were seeded on 96 well plates at 40000 cells/well, and the plate was incubated overnight in MEM medium containing 10% fetal bovine serum (FBS) at 37° C. under 5% CO2. The next day, the medium was replaced with MEM containing 0.5% FBS, followed by addition of test compound. The test compound was dissolved in dimethyl sulfoxide and added to the cell so that the final concentration of dimethyl sulfoxide was 0.1%. After incubation for additional 48 hours, the culture supernatant was collected, and EPO contained in the supernatant was determined using ELISA kit (EPO ELISA Kit 11-693-417-001, Roche Co.). The results were expressed as stimulation rate of EPO production (fold), which was calculated as the relative value of the EPO production with 3 μmol/L of the test compound compared to the EPO production without stimulation (control).
Stimulation rate of EPO production (fold)=(EPO production with addition of test compound)/(EPO production of control)

human HIF-PHD2 = biological target: T1, human HIF-PHD2 (Homo sapiens, UniProt Q9GZT9); test: HIF-PHD inhibition assay (fluorescence polarization), human HIF-PHD2; assay type: biochemical; conditions: 2-oxoglutaric acid 3.33 μmol/L
T1 construct: purchased CrystalGenomics Ltd
T1 sequence (Q9GZT9 2-426 limits assumed): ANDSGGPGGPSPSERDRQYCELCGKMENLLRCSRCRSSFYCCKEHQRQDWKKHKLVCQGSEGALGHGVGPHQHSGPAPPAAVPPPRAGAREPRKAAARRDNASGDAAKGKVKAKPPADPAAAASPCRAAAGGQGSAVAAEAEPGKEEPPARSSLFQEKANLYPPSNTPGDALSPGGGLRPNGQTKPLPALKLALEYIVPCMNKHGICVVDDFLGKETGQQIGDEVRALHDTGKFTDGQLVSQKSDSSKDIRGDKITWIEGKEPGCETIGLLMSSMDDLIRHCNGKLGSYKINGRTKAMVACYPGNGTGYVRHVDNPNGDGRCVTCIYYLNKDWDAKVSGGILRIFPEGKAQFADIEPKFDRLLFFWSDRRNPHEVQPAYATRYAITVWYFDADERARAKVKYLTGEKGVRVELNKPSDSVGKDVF
Procedure, shortened: (§1)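 Compounds tested for enzyme inhibition by fluorescence polarization. Subtracting the reading taken before enzyme addition from the post-addition reading gave activity in mP.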

human HIF-PHD3 = biological target: T2, human HIF-PHD3 (Homo sapiens, UniProt Q9H6Z9); test: HIF-PHD inhibition assay (fluorescence polarization), human HIF-PHD3; assay type: biochemical; conditions: 2-oxoglutaric acid 166 μmol/L
T2 construct: purchased CrystalGenomics Ltd
T2 sequence (Q9H6Z9 whole entry): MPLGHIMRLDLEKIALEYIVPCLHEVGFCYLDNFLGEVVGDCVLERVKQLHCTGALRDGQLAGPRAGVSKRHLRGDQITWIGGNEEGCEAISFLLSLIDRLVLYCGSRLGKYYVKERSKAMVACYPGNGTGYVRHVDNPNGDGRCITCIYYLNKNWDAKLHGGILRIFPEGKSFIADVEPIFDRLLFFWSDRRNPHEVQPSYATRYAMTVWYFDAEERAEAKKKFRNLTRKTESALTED
Procedure, shortened: as §1

| Compound | IC50 (human HIF-PHD2) | IC50 (human HIF-PHD3) | fold induction at 3 µM (Hep3B cells) |
| --- | --- | --- | --- |
| O=C(O)c1cnn(-c2nc(O)c3c(cnn3Cc3ccc(-c4ccccc4Cl)cc3)n2)c1 [Example 62] | 17 nM | 140 nM | 12 |
| O=C(O)c1cnn(-c2nc(O)c3c(cnn3Cc3ccc(-c4cccc(F)c4)cc3)n2)c1 [Example 63] | 14 nM | 110 nM | 18 |
| Cc1cccc(-c2ccc(Cn3ncc4nc(-n5cc(C(=O)O)cn5)nc(O)c43)cc2)c1 [Example 64] | 18 nM | 66 nM | 23 |
| O=C(O)c1cnn(-c2nc(O)c3c(cnn3Cc3ccc(-c4ccc(F)cc4)cc3)n2)c1 [Example 66] | 17 nM | 110 nM | 33 |
| Cc1cccc(C)c1-c1ccc(Cn2ncc3nc(-n4cc(C(=O)O)cn4)nc(O)c32)cc1 [Example 68] | 23 nM | 160 nM | 9.5 |
| O=C(O)c1cnn(-c2nc(O)c3c(cnn3Cc3c(F)cc(-c4ccccc4)cc3F)n2)c1 [Example 79] | 16 nM | 200 nM | 14 |
| O=C(O)c1cnn(-c2nc(O)c3c(cnn3Cc3ccc(-c4c(F)cccc4F)cc3F)n2)c1 [Example 81] | 35 nM | 170 nM | 5.4 |
| Cc1ccccc1-c1ccc(Cn2ncc3nc(-n4cc(C(=O)O)cn4)nc(O)c32)c(F)c1 [Example 83] | 33 nM | 240 nM | 6.2 |
| O=C(O)c1cnn(-c2nc(O)c3c(cnn3Cc3ccc(-c4ccccc4OC(F)(F)F)cc3F)n2)c1 [Example 86] | 21 nM | 330 nM | 2.5 |
| N#Cc1ccccc1-c1ccc(Cn2ncc3nc(-n4cc(C(=O)O)cn4)nc(O)c32)c(F)c1 [Example 87] | 50 nM | 260 nM | 5.3 |
| O=C(O)c1cnn(-c2nc(O)c3c(cnn3Cc3ccc(-c4ccccc4F)cc3C(F)(F)F)n2)c1 [Example 89] | 48 nM | 1300 nM | 16 |
| O=C(O)c1cnn(-c2nc(O)c3c(cnn3Cc3ccc(-c4ccccc4)c(F)c3)n2)c1 [Example 91] | 24 nM | 28 nM | 8.6 |
| Cc1cc(Cn2ncc3nc(-n4cc(C(=O)O)cn4)nc(O)c32)ccc1-c1ccccc1F [Example 94] | 65 nM | 300 nM | 17 |
| COc1ccccc1-c1ccc(Cn2ncc3nc(-n4cc(C(=O)O)cn4)nc(O)c32)cc1F [Example 95] | 24 nM | 86 nM | 4.2 |
| COc1cc(Cn2ncc3nc(-n4cc(C(=O)O)cn4)nc(O)c32)ccc1-c1c(F)cccc1F [Example 97] | 34 nM | 300 nM | 5.2 |
| COc1cc(Cn2ncc3nc(-n4cc(C(=O)O)cn4)nc(O)c32)ccc1-c1ccccc1C [Example 98] | 20 nM | 190 nM | 8.6 |
| COc1ccccc1-c1ccc(Cn2ncc3nc(-n4cc(C(=O)O)cn4)nc(O)c32)cc1OC [Example 99] | 37 nM | 200 nM | 3.1 |
| O=C(O)c1cnn(-c2nc(O)c3c(cnn3Cc3ccc(-c4ccccc4F)c(F)c3F)n2)c1 [Example 101] | 15 nM | 120 nM | 12 |
| Cc1ccccc1-c1ccc(Cn2ncc3nc(-n4cc(C(=O)O)cn4)nc(O)c32)cc1F [Example 102] | 19 nM | 150 nM | 9.8 |
| C[C@H](c1ccc(-c2ccccc2)cc1)n1ncc2nc(-n3cc(C(=O)O)cn3)nc(O)c21 [Example 109] | 24 nM | 260 nM | 20 |
| C[C@@H](c1ccc(-c2ccccc2)cc1)n1ncc2nc(-n3cc(C(=O)O)cn3)nc(O)c21 [Example 110] | 27 nM | 63 nM | 56 |
| C[C@H](c1ccc(-c2ccccc2F)cc1)n1ncc2nc(-n3cc(C(=O)O)cn3)nc(O)c21 [Example 111] | 25 nM | > 1000 nM | 36 |
| O=C(O)c1cnn(-c2nc(O)c3c(cnn3CCc3cccc(Cl)c3)n2)c1 [Example 114] | 20 nM | 300 nM | 5.2 |
| O=C(O)c1cnn(-c2nc(O)c3c(cnn3CCc3ccc(Cl)c(Cl)c3)n2)c1 [Example 115] | 24 nM | 220 nM | 5.1 |
| O=C(O)c1cnn(-c2nc(O)c3c(cnn3CCc3ccc4ccccc4c3)n2)c1 [Example 116] | 21 nM | 190 nM | 4 |
| O=C(O)c1cnn(-c2nc(O)c3c(cnn3CCc3ccc4ccccc4n3)n2)c1 [Example 117] | 37 nM | 520 nM | 2 |
| CC(C)(Cn1ncc2nc(-n3cc(C(=O)O)cn3)nc(O)c21)c1ccc2ccccc2c1 [Example 118] | 45 nM | 320 nM | 17 |
| CC(C)(Cn1ncc2nc(-n3cc(C(=O)O)cn3)nc(O)c21)c1ccc(Cl)cc1 [Example 120] | 54 nM | 890 nM | 9.7 |
| O=C(O)c1cnn(-c2nc(O)c3c(cnn3CC3(c4ccccc4)CCCCC3)n2)c1 [Example 124] | 55 nM | 930 nM | 3.4 |
| Cc1c(CCn2ncc3nc(-n4cc(C(=O)O)cn4)nc(O)c32)ccc2ccccc12 [Example 126] | 51 nM | 420 nM | 5.2 |

The next compounds have a lower IC50 (human HIF-PHD2) than those just listed; values first:

| IC50 (human HIF-PHD2) | IC50 (human HIF-PHD3) | Compound | fold induction at 3 µM (Hep3B cells) |
| --- | --- | --- | --- |
| 13 nM | 110 nM | COc1cccc(Cl)c1-c1ccc(Cn2ncc3nc(-n4cc(C(=O)O)cn4)nc(O)c32)cc1 [Example 69] | 7.8 |
| 13 nM | 200 nM | O=C(O)c1cnn(-c2nc(O)c3c(cnn3Cc3ccc(-c4ccccc4C(F)(F)F)cc3F)n2)c1 [Example 84] | 4.3 |
| 13 nM | 110 nM | COc1cc(Cn2ncc3nc(-n4cc(C(=O)O)cn4)nc(O)c32)ccc1-c1ccccc1F [Example 96] | 6.8 |
| 13 nM | 87 nM | C[C@@H](c1ccc(-c2ccccc2F)cc1)n1ncc2nc(-n3cc(C(=O)O)cn3)nc(O)c21 [Example 112] | 28 |
| 12 nM | 110 nM | O=C(O)c1cnn(-c2nc(O)c3c(cnn3Cc3ccc(-c4cc(C(F)(F)F)ccc4F)nc3)n2)c1 [Example 105] | 9.5 |
| 12 nM | 180 nM | CCc1ccc2cc(CCn3ncc4nc(-n5cc(C(=O)O)cn5)nc(O)c43)ccc2c1 [Example 128] | 168 |
| 11 nM | 180 nM | O=C(O)c1cnn(-c2nc(O)c3c(cnn3Cc3ccc(-c4cccc(C(F)(F)F)c4)cc3)n2)c1 [Example 65] | 20 |
| 11 nM | 110 nM | Cc1ccc(-c2ccc(Cn3ncc4nc(-n5cc(C(=O)O)cn5)nc(O)c43)cc2)c(C)c1 [Example 70] | 24 |
| 11 nM | 66 nM | COc1ccccc1-c1ccc(Cn2ncc3nc(-n4cc(C(=O)O)cn4)nc(O)c32)c(F)c1 [Example 85] | 4 |
| 10 nM | 190 nM | O=C(O)c1cnn(-c2nc(O)c3c(cnn3Cc3ccc(-c4ccc(C(F)(F)F)cc4)cc3)n2)c1 [Example 67] | 19 |
| 10 nM | 110 nM | O=C(O)c1cnn(-c2nc(O)c3c(cnn3Cc3ccc(-c4ccc(F)cc4F)nc3)n2)c1 [Example 104] | 5.4 |
| 9.1 nM | 120 nM | O=C(O)c1cnn(-c2nc(O)c3c(cnn3Cc3ccc(-c4cccc(F)c4F)cc3)n2)c1 [Example 76] | 6.9 |
| 8.9 nM | 42 nM | O=C(O)c1cnn(-c2nc(O)c3c(cnn3Cc3ccc(-c4ccccc4F)cc3F)n2)c1 [Example 80] | 9.5 |
| 8.7 nM | 130 nM | O=C(O)c1cnn(-c2nc(O)c3c(cnn3Cc3ccc(-c4cc(F)ccc4F)cc3)n2)c1 [Example 77] | 9.8 |
| 7.4 nM | 28 nM | Cc1ncccc1-c1ccc(Cn2ncc3nc(-n4cc(C(=O)O)cn4)nc(O)c32)cc1F [Example 106] | 5.2 |
| 6.2 nM | 62 nM | Cc1ccc2cc(CCn3ncc4nc(-n5cc(C(=O)O)cn5)nc(O)c43)ccc2c1 [Example 127] | 17 |
| 6.1 nM | 68 nM | O=C(O)c1cnn(-c2nc(O)c3c(cnn3Cc3ccc(-c4ccccc4)cc3F)n2)c1 [Example 78] | 30 |
| 5.3 nM | 85 nM | COc1ccccc1-c1ccc([C@H](C)n2ncc3nc(-n4cc(C(=O)O)cn4)nc(O)c32)cc1 [Example 113] | 7.5 |
